In patent US20230293526A1, “METHOD FOR TREATING CANCER WITH A REVERSE TRANSCRIPTASE INHIBITOR” (PrimeFour Therapeutics, Inc., priority 2020, published 2023):

Key:
Format in all cases: cell-based
[1] = tested on: 5637; assay: Cell proliferation Ex.3
Experimental: (§1) A dose response relationship on cell proliferation was assessed for Compound 13 on 140 tumor cell lines. […] Cells were cultured in the appropriate media. For the assays, cells were seeded in white cell culture-treated flat and clear bottom multiwell plates and incubated at 37° C. overnight before compound was added. […] on the medium, cell plates were equilibrated to room temperature for one hour, CellTiterGlo reagent (Promega) was added and luminescence was measured approximately an hour later using a luminometer. Raw data were converted into percent cell viability relative to the high and low control, which were set to 10000 and 000, respectively.

[2] = tested on: A431; assay: Cell proliferation Ex.3; conditions: Homo sapiens, A-431
Experimental: as §1

[3] = tested on: A549; assay: Cell proliferation Ex.3; conditions: Homo sapiens
Experimental: as §1

[4] = tested on: CACO2; assay: Cell proliferation Ex.3; conditions: Homo sapiens, Caco-2
Experimental: as §1

[5] = tested on: CAKI1; assay: Cell proliferation Ex.3; conditions: Homo sapiens, CAKI-1
Experimental: as §1

[6] = tested on: HS729; assay: Cell proliferation Ex.3
Experimental: as §1

[7] = tested on: HeLa; assay: Cell proliferation Ex.3; conditions: Homo sapiens
Experimental: as §1

[8] = tested on: JIMT1; assay: Cell proliferation Ex.3; conditions: Homo sapiens, JIMT-1
Experimental: as §1

[9] = tested on: L363; assay: Cell proliferation Ex.3; conditions: Homo sapiens, L-363
Experimental: as §1

[10] = tested on: LOVO; assay: Cell proliferation Ex.3; conditions: Homo sapiens
Experimental: as §1

[11] = tested on: MDAMB468; assay: Cell proliferation Ex.3; conditions: Homo sapiens, MDA-MB-468
Experimental: as §1

[12] = tested on: NCI-H23; assay: Cell proliferation Ex.3; conditions: Homo sapiens
Experimental: as §1

[13] = tested on: NCIH358M; assay: Cell proliferation Ex.3; conditions: NCI-H358M
Experimental: as §1

[14] = tested on: NCIH82; assay: Cell proliferation Ex.3; conditions: Homo sapiens, NCI-H82
Experimental: as §1

[15] = tested on: OVCAR4; assay: Cell proliferation Ex.3; conditions: Homo sapiens, OVCAR-4
Experimental: as §1

[16] = tested on: PC3; assay: Cell proliferation Ex.3; conditions: Homo sapiens, PC-3
Experimental: as §1

[17] = tested on: RAMOS; assay: Cell proliferation Ex.3; conditions: Homo sapiens
Experimental: as §1

[18] = tested on: SKNAS; assay: Cell proliferation Ex.3; conditions: Homo sapiens, SK-N-AS
Experimental: as §1

[19] = tested on: A172; assay: Cell proliferation CellTiterGlo Ex.2; conditions: Homo sapiens, A 172; A172 (Brain), 72 h
In short: (§2)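 Cells were seeded, incubated overnight at 37 °C, then dosed at 10, 3, 1, 0.3, 0.1, 0.03, 0.01 and 0.003 μM for 72 h (5% or 10% CO2). CellTiterGlo luminescence gave percent viability relative to 0.10% DMSO (high) and 10 μM staurosporine (low) controls.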

[20] = tested on: JVM-3; assay: Cell proliferation CellTiterGlo Ex.2; conditions: Homo sapiens; JVM-3 (Blood), 72 h
In short: as §2

[21] = tested on: MDA MB 435; assay: Cell proliferation CellTiterGlo Ex.2; conditions: Homo sapiens; MDA MB 435 (Skin), 72 h
In short: as §2

[22] = tested on: MKN-45; assay: Cell proliferation CellTiterGlo Ex.2; conditions: Homo sapiens; MKN-45 (Stomach), 72 h
In short: as §2

[23] = tested on: Mia PaCA 2; assay: Cell proliferation CellTiterGlo Ex.2; conditions: Homo sapiens; Mia PaCA 2 (Pancreas), 72 h
In short: as §2

[24] = tested on: SK-MEL-3; assay: Cell proliferation CellTiterGlo Ex.2; conditions: Homo sapiens, SK-MEL3; SK-MEL-3 (Skin), 72 h
In short: as §2

C#C[C@]1(CO)O[C@@H](n2cc(F)c(N)nc2=O)C[C@@H]1O [compound 9]
IC50 ([1]; 5637, 72 h): > 10 µM | IC50 ([1]; 5637, 120 h): > 10 µM | IC50 ([1]; 5637, 168 h): > 10 µM | IC50 ([2]; A431, 72 h): > 10 µM | IC50 ([2]; A431, 120 h): 3.18 µM | IC50 ([2]; A431, 168 h): 1.42 µM | IC50 ([3]; A549, 72 h): > 10 µM | IC50 ([3]; A549, 120 h): > 10 µM | IC50 ([3]; A549, 168 h): > 10 µM | IC50 ([4]; CACO2, 72 h): > 10 µM | IC50 ([4]; CACO2, 120 h): > 10 µM | IC50 ([4]; CACO2, 168 h): > 10 µM | IC50 ([5]; CAKI1, 72 h): > 10 µM | IC50 ([5]; CAKI1, 120 h): > 10 µM | IC50 ([5]; CAKI1, 168 h): > 10 µM | IC50 ([6]; HS729, 72 h): > 10 µM | IC50 ([6]; HS729, 120 h): > 10 µM | IC50 ([6]; HS729, 168 h): > 10 µM | IC50 ([7]; 72 h): > 10 µM | IC50 ([7]; 120 h): > 10 µM | IC50 ([7]; 168 h): > 10 µM | IC50 ([8]; JIMT1, 72 h): > 10 µM | IC50 ([8]; JIMT1, 120 h): > 10 µM | IC50 ([8]; JIMT1, 168 h): > 10 µM | IC50 ([9]; L363, 72 h): > 10 µM | IC50 ([9]; L363, 120 h): > 10 µM | IC50 ([9]; L363, 168 h): > 10 µM | IC50 ([10]; 72 h): > 10 µM | IC50 ([10]; 120 h): 3.28 µM | IC50 ([10]; 168 h): 2.06 µM | IC50 ([11]; MDAMB468, 72 h): > 10 µM | IC50 ([11]; MDAMB468, 120 h): > 10 µM | IC50 ([11]; MDAMB468, 168 h): > 10 µM | IC50 ([12]; NCI-H23, 72 h): > 10 µM | IC50 ([12]; NCI-H23, 120 h): > 10 µM | IC50 ([12]; NCI-H23, 168 h): > 10 µM | IC50 ([13]; 72 h): > 10 µM | IC50 ([13]; 120 h): > 10 µM | IC50 ([13]; 168 h): 0.67 µM | IC50 ([14]; NCIH82, 72 h): > 10 µM | IC50 ([14]; NCIH82, 120 h): 9.1 µM | IC50 ([14]; NCIH82, 168 h): > 10 µM | IC50 ([15]; OVCAR4, 72 h): > 10 µM | IC50 ([15]; OVCAR4, 120 h): > 10 µM | IC50 ([15]; OVCAR4, 168 h): > 10 µM | IC50 ([16]; PC3, 72 h): > 10 µM | IC50 ([16]; PC3, 120 h): > 10 µM | IC50 ([16]; PC3, 168 h): > 10 µM | IC50 ([17]; 72 h): 4.04 µM | IC50 ([17]; 120 h): 0.004 µM | IC50 ([17]; 168 h): 1.18 µM | IC50 ([18]; 72 h): > 10 µM | IC50 ([18]; 120 h): > 10 µM | IC50 ([18]; 168 h): > 10 µM

C#C[C@]1(CO)O[C@@H](n2cnc3c(=O)[nH]c(N)nc32)C[C@@H]1O [compound 13]
IC50 [19]: > 10 µM | IC50 [20]: 2.45 µM | IC50 [21]: > 10 µM | IC50 [22]: > 10 µM | IC50 [23]: > 10 µM | IC50 [24]: > 10 µM
